Data published in patent publication US10258039B2, “Substituted pyrazolylpyrazole derivative and use of same as herbicide” (KYOYU AGRI CO., LTD., priority 2015, dated 2019).

Experiments:
Format in all cases: in vivo
Amaranthus retroflexus [1] = assay: Farming soil treatment test; conditions: soil surface spray prior to weed growth, 30 days, 30° C.
Description: (§1) 2. Farming Soil Treatment Test
(§2) Field soil was filled into a 1/6000 are pot followed by seeding with Digitaria ciliaris, Chenopodium album and Amaranthus retroflexus and covering with soil.
(§3) Wettable powders of compounds of formula (I) shown in Table 1 prepared in compliance with the preparation examples were diluted with water to the prescribed amount of chemical and uniformly sprayed onto each soil surface layer using 100 liters of sprayed water per 10 are prior to weed growth following seeding.
(§4) After treating for 30 days in a glass greenhouse at an average atmospheric temperature of 30° C., the herbicidal efficacy thereof was investigated.
(§5) Evaluation of herbicidal efficacy was carried out in the same manner as the above-mentioned Test Example 1.

Digitaria ciliaris [2] = assay: Farming soil treatment test; conditions: soil surface spray prior to weed growth, 30 days, 30° C.
Description: as §1, §2, §3, §4, §5

Chenopodium album [3] = assay: Farming soil treatment test; conditions: soil surface spray prior to weed growth, 30 days, 30° C.
Description: as §1, §2, §3, §4, §5

Scirpus juncoides = assay: Paddy herbicidal activity test; conditions: irrigated paddy pot, 30 days, 30° C.
Description: (§6) 1. Paddy Herbicidal Activity Test
(§7) Rice paddy soil was filled into a 1/10000 are pot followed by the addition of suitable amounts of water and chemical fertilizer, kneading, seeding with Echinochloa crus-galli, Monochoria vaginalis and Scirpus juncoides and maintaining in an irrigated state at a water depth of 3 cm.
(§8) Wettable powders of Target Compound (I) shown in. Table 1 prepared in compliance with the preparation examples were diluted with a suitable amount of water, rice plants in the 2.0 leaf stage were transplanted during 3.5 leaf stage of Echinochloa crus-galli, and treated by dropping in chemical in the prescribed amount per 10 are using a pipette.
as §4
(§9) Evaluation of herbicidal efficacy was carried out by comparing growth inhibition rate (%) with an untreated group, while evaluation of phytotoxicity was carried out by comparing growth inhibition rate (%) with the state of a complete eradication group, and were evaluated at 11 levels indicated below.

Echinochloa crus-galli = assay: Paddy herbicidal activity test; conditions: irrigated paddy pot, treated at 3.5 leaf stage of Echinochloa crus-galli, 30 days, 30° C.
Description: as §6, §7, §8, §4, §9

Monochoria vaginalis = assay: Paddy herbicidal activity test; conditions: irrigated paddy pot, 30 days, 30° C.
Description: as §6, §7, §8, §4, §9

Amaranthus retroflexus [4] = assay: Weed foliar treatment test (Test 3, 1.0 to 2.0 leaf stage); conditions: foliar spray at 1.0 to 2.0 leaf stage of Digitaria ciliaris, 3 weeks, 25° C.
Description: (§10) 3. Weed Foliar Treatment Test
(§11) Soil was filled into a 1/6000 are pot followed by seeding with Digitaria ciliaris, Chenopodium album and Amaranthus retroflexus, covering with soil, and cultivating in a glass greenhouse at an average atmospheric temperature of 25° C.
(§12) Wettable powders of Target Compound (I) shown in Table 1 prepared in compliance with the preparation examples were diluted with water to the prescribed amount of chemical and uniformly sprayed onto the weeds using 150 liters of sprayed water per 10 are when Digitaria ciliaris had grown to the 1.0 to 2.0 leaf stage.
(§13) After treating for 3 weeks in a glass greenhouse at an average atmospheric temperature of 25° C., the herbicidal efficacy thereof was investigated.
as §5

Digitaria ciliaris [5] = assay: as above; conditions: foliar spray at 1.0 to 2.0 leaf stage of Digitaria ciliaris, 3 weeks, 25° C.
Description: as §10, §11, §12, §13, §5

Chenopodium album [6] = assay: as above; conditions: foliar spray at 1.0 to 2.0 leaf stage of Digitaria ciliaris, 3 weeks, 25° C.
Description: as §10, §11, §12, §13, §5

Oryza sativa = assay: Paddy herbicidal activity test, phytotoxicity to transplanted rice; conditions: rice transplanted at 2.0 leaf stage, 30 days, 30° C.
Description: as §6, §7, §8, §4, §9

Galinsoga parviflora = assay: Weed foliar treatment test (Test 4, 4.0 to 5.0 leaf stage); conditions: 10g a.i./10a; foliar spray at 4.0 to 5.0 leaf stage of Digitaria ciliaris; 20 days, 25° C.
Description: (§14) 4. Weed Foliar Treatment Test
(§15) Field soil was filled into a 1/4500 are pot followed by seeding with Digitaria ciliaris and Galinsoga parviflora, covering with soil and cultivating in a glass greenhouse at an average atmospheric temperature of 25° C.
as §12, with “100” for “150”, “4.0” for “1.0”, “5.0” for “2.0”, “stage (plant height: 10 cm to 15 cm).” for “stage.”
(§16) After treating for 20 days in a glass greenhouse at an average atmospheric temperature of 25° C., the herbicidal efficacy thereof was investigated.
as §5

Digitaria ciliaris [7] = assay: as above; conditions: 10g a.i./10a; foliar spray at 4.0 to 5.0 leaf stage of Digitaria ciliaris (plant height 10 cm to 15 cm); 20 days, 25° C.
Description: as §14, §15
as §12, with “100” for “150”, “4.0” for “1.0”, “5.0” for “2.0”, “stage (plant height: 10 cm to 15 cm).” for “stage.”
as §16, §5

N#Cc1cnn(-c2nn3c(c2Cl)CCCC3)c1NC(=O)C1CC1 [Control agent 4.190, reference compound]
herbicidal efficacy, Amaranthus retroflexus (Amaranthus retroflexus [1]; 5g a.i./10a): 4 (4: 40% to less than 50%)
herbicidal efficacy, Amaranthus retroflexus (Amaranthus retroflexus [1]; 10g a.i./10a): 4 (4: 40% to less than 50%)
herbicidal efficacy, Digitaria ciliaris (Digitaria ciliaris [2]; 5g a.i./10a): 3 (3: 30% to less than 40%)
herbicidal efficacy, Digitaria ciliaris (Digitaria ciliaris [2]; 10g a.i./10a): 4 (4: 40% to less than 50%)
herbicidal efficacy, Chenopodium album (Chenopodium album [3]; 5g a.i./10a): 5 (5: 50% to less than 60%)
herbicidal efficacy, Chenopodium album (Chenopodium album [3]; 10g a.i./10a): 6 (6: 60% to less than 70%)
herbicidal efficacy, Scirpus juncoides (Scirpus juncoides; 1g a.i./10a): 4 (4: 40% to less than 50%)
herbicidal efficacy, Scirpus juncoides (Scirpus juncoides; 5g a.i./10a): 5 (5: 50% to less than 60%)
herbicidal efficacy, Echinochloa crus-galli (Echinochloa crus-galli; 1g a.i./10a): 6 (6: 60% to less than 70%)
herbicidal efficacy, Echinochloa crus-galli (Echinochloa crus-galli; 5g a.i./10a): 6 (6: 60% to less than 70%)
herbicidal efficacy, Monochoria vaginalis (Monochoria vaginalis; 1g a.i./10a): 4 (4: 40% to less than 50%)
herbicidal efficacy, Monochoria vaginalis (Monochoria vaginalis; 5g a.i./10a): 5 (5: 50% to less than 60%)
herbicidal efficacy, Amaranthus retroflexus (Amaranthus retroflexus [4]; 5g a.i./10a): 4 (4: 40% to less than 50%)
herbicidal efficacy, Amaranthus retroflexus (Amaranthus retroflexus [4]; 10g a.i./10a): 6 (6: 60% to less than 70%)
herbicidal efficacy, Digitaria ciliaris (Digitaria ciliaris [5]; 5g a.i./10a): 5 (5: 50% to less than 60%)
herbicidal efficacy, Digitaria ciliaris (Digitaria ciliaris [5]; 10g a.i./10a): 6 (6: 60% to less than 70%)
herbicidal efficacy, Chenopodium album (Chenopodium album [6]; 5g a.i./10a): 5 (5: 50% to less than 60%)
herbicidal efficacy, Chenopodium album (Chenopodium album [6]; 10g a.i./10a): 6 (6: 60% to less than 70%)
phytotoxicity, Oryza sativa (Oryza sativa; 1g a.i./10a): 8 (8: 80% to less than 90%)
phytotoxicity, Oryza sativa (Oryza sativa; 5g a.i./10a): 9 (9: 90% to less than 100%)
herbicidal efficacy, Galinsoga parviflora (Galinsoga parviflora): 4 (4: 40% to less than 50%)
herbicidal efficacy, Digitaria ciliaris (Digitaria ciliaris [7]): 2 (2: 20% to less than 30%)
